Experimental findings from US20230219939A1, “N-(1-CYANO-PYRROLIDIN-3-YL)-5-(3-(TRIFLUOROMETHYL)PHENYL)OXAZOLE-2-CARBOXAMIDE DERIVATIVES AND THE CORRESPONDING OXADIAZOLE DERIVATIVES AS USP30 INHIBITORS FOR THE TREATMENT OF MITOCHONDRIAL DYSFUNCTION” (MISSION THERAPEUTICS LIMITED, priority 2020, published 2023) are described below.

pIC50: −log10 of the molar value. Where two headings read alike, the source gives them in different places.

For one series, the target named is T1, USP30 (Homo sapiens, UniProt Q70CQ3).
T1 construct: purchased Boston Biochem E582
T1 sequence (Q70CQ3 57-517 limits assumed): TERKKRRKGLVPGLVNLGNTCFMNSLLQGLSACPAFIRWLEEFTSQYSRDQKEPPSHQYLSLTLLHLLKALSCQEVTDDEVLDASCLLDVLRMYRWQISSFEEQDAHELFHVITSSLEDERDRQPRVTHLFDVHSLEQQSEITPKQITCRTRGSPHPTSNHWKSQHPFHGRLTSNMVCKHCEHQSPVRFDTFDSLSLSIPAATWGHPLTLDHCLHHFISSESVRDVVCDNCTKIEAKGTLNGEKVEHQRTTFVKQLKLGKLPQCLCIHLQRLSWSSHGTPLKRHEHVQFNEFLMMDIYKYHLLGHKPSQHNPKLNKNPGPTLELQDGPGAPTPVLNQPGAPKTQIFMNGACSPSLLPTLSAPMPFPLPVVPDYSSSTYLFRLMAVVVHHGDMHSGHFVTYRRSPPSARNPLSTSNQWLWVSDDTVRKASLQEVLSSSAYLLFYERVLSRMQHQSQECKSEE
Put plainly: USP30 biochemical IC50 assay (fluorescence polarisation). As to the method:
Dilution plates were prepared at 21 times the final concentration (2100 μM for a final concentration of 100 μM) in 50% DMSO in a 96-well polypropylene V-bottom plate (Greiner #651201). A typical 8-point dilution series would be 100, 30, 10, 3, 1, 0.3, 0.1, 0.03 μM final. Reactions were performed in duplicate in black 384 well plates (small volume, Greiner 784076) in a final reaction volume of 21 μl. Either 1 μl of 50% DMSO or diluted compound was added to the plate. USP30 (Boston Biochem #E582) was diluted in reaction buffer (40 mM Tris, pH 7.5, 0.005% Tween 20, 0.5 mg/ml BSA, 5 mM beta-mercaptoethanol) to achieve a final assay concentration of 4 nM, and 10 μl of diluted USP30 was added to the compound. Enzyme and compound were incubated for 30 min at room temp. Reactions were initiated by the addition of 50 nM of TAMRA labelled peptide linked to ubiquitin via an iso-peptide bond as fluorescence polarisation substrate. Reactions were read immediately after addition of substrate and following a 2-hour incubation at room temperature. Readings were performed on a Pherastar Plus (BMG Labtech). λ Excitation 540 nm; λ Emission 590 nm.
Background: In fluorescence polarisation assays a small probe gives low polarisation when free and higher when bound to something large.

Series [1] relates to USP2, USP6, USP10, USP16, USP21, USP22, USP25, USP28. Put plainly: DUB selectivity panel IC50. Type of series: biochemical.
The target of the next series is T2, UCHL1 (Homo sapiens, UniProt P09936).
T2 sequence (P09936 1-223): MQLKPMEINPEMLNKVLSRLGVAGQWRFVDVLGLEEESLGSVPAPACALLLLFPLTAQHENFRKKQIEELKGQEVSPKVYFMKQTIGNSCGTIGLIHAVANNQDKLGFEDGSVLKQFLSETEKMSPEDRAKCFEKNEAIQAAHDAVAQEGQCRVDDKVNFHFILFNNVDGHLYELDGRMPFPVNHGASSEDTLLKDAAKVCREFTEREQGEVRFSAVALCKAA
Put plainly: UCHL1 DUB IC50. Type of series: biochemical.

A further series addresses Cathepsin B (Homo sapiens, UniProt P07858). Put plainly: Cathepsin B IC50. In kind it is biochemical.
For the next series, the target named is T3, Cathepsin K (Homo sapiens, UniProt P43235).
T3 sequence (P43235 115-329): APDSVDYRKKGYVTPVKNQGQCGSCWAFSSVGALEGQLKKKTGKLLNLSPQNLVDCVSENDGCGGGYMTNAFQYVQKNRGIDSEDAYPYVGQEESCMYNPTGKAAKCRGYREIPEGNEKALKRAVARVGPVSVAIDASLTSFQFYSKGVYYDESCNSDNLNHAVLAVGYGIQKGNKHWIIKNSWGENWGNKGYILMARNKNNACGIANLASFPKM
Put plainly: Cathepsin K IC50. In kind it is biochemical.

For a further series, the target named is Cathepsin L (Homo sapiens, UniProt P07711). Put plainly: Cathepsin L IC50. Type of series: biochemical. The conditions noted are these: read-out: Cathepsin IC50 (μM) Cathepsin U.
Cathepsin L, sequence (P07711 114-333, species assumed): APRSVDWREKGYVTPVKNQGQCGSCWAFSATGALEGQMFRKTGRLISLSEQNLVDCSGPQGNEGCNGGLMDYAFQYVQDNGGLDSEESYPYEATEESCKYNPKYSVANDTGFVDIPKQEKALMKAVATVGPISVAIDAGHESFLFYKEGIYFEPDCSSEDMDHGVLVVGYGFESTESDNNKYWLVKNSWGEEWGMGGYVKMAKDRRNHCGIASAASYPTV
The target of another series is Cathepsin S (Homo sapiens, UniProt P25774). Put plainly: Cathepsin S IC50. Type of series: biochemical.
Cathepsin S, sequence (P25774 115-331, species assumed): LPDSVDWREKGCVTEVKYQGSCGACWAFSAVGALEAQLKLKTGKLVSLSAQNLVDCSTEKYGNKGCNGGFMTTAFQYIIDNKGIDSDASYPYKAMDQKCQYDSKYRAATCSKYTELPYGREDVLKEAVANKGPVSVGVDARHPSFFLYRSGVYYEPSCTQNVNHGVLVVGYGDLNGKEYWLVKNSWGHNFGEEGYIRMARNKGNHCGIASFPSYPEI
The target in another series is Cathepsin V (Homo sapiens, UniProt O60911). The experiment in a line: Cathepsin V IC50. Type of series: biochemical.
Cathepsin V, sequence (O60911 114-334, species assumed): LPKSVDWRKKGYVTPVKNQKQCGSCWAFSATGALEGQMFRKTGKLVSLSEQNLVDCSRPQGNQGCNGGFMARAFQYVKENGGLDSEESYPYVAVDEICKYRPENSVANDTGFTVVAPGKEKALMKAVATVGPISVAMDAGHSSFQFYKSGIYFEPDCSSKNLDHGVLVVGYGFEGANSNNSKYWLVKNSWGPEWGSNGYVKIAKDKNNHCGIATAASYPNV
A further series has as its system Cathepsins B, K, L, S, V. The experiment in a line: Cathepsin panel IC50 (summary over B, K, L, S, V). Type of series: biochemical.
The test system of another series is mouse hepatocytes. The experiment in a line: Hepatocyte Cl mouse. Type of series: in vitro ADME. Here is the method:
Hep Cl mouse: in vitro hepatocyte clearance in mouse cells.
Clu: in vitro clearance. Clu as defined here is the scaled clearance, in turn calculated from the intrinsic clearance. The intrinsic clearance is the predicted clearance due to hepatic metabolic reactions, determined from incubation of a compound in a hepatocyte preparation.

A short description of the next series: Mouse plasma stability. Particulars: mouse plasma; read-out: Stability Mouse plasma t1/2. In kind it is in vitro ADME.

Consider `N#CN1CC[C@H](C(=O)Nc2cn(-c3cccc(C(F)(F)F)c3)cn2)C1` [Reference Example B, reference compound], for which the negative-log IC50 (pIC50) at USP30 (USP30 biochemical IC50 assay, read-out: USP30 IC50) was 6.52. Besides, the IC50 is 0.3 µM at USP30 (read-out: DUB IC50 (μM) USP30); 3.8 to 59.7 µM in [1] (range over the eight DUBs, read-out: DUB IC50 (μM) USP2, USP6, USP10, USP16, USP21, USP22, USP25, USP28); 0.15 µM against UCHL1; 4.6 µM against Cathepsin B; 0.91 µM against Cathepsin K; 1.1 µM at Cathepsin L. For the same molecule, the 50% inhibitory concentration (IC50) on Cathepsin S was 6.4 µM; on Cathepsin V, 2.5 µM; in the series on Cathepsins B, K, L, S, V (range over the five cathepsins, read-out: Cathepsin IC50 (μM) B, K, U, S, V), 0.91 to 6.4 µM. Also, in series [1] (Ref. Ex. A 7 DUBs (exc. USP6), Ref. Ex. B 8 DUBs), the “DUB selectivity preference for USP30 v 7/8 DUBs” value was 12.7-199. The “minimum fold more potent against USP30 than against each of the eight DUBs” value in [1] (USP2, USP6, USP10, USP16, USP21, USP22, USP25, USP28, 'A' not tested against USP6) is given as 12.7 fold. Besides, the “DUB selectivity preference for USP30 v UCHL1” value at UCHL1 was 0.5. At UCHL1, the “fold more potent against USP30 than UCHL1” value stood at 0.5 fold. Moreover, the “fold more potent against USP30 than against cathepsin K” value at Cathepsin K stood at 3 fold. For the same molecule, in the series with Cathepsins B, K, L, S, V, the “Selectivity preference for USP30 v cathepsins” value is given as 3.0-21. The “Hepatocyte Cl mouse Scaled Clu” value in the series on mouse hepatocytes was greater than 121 mL/min/kg. In addition, the half-life in the series “Mouse plasma stability” was found to be 10.4 min.

Usually pIC50 stands for −log10 of the IC50, conventionally taken in molar units. By IC50 is commonly meant the midpoint of a concentration-inhibition curve.
